Test results from patent publication US20250186411A1, “Methods of Treating Disorders Associated with Overactivation of IKKB” (The United States Government as represented by the …, priority 2023, published 2025).
Read-outs that look alike come from different tables or passages of the source.

How the values were obtained:
Type in all cases: cell-based
[1] = system: KLF15 promoter (pEZX-FR03hKLF15p human podocytes); assay: Half maximal effective concentration (EC50) of KLF15 reporter activity
Experimental: The EC50 was determined using nonlinear regression and then choosing the equation of Sigmoidal function, 4PL method (X is log(concentration); or the equation of log(agonist) vs. response—variable slope).
(§1) To identify small molecule inducers of KLF15 expression in human podocytes, human podocytes were generated with a dual reporter, firefly luciferase directed at the KLF15 promoter region and renilla luciferase (pEZX-FR03hKLF15p). […] The positive controls were inducers of KLF15 expression, dexamethasone (DEX) and all-trans retinoic acid (atRA), and […] and cell-free wells served as negative controls.

[2] = system: KLF15 promoter (pEZX-FR03hKLF15p human podocytes); assay: KLF15 reporter high-throughput screening assay in human podocytes (firefly/renilla luciferase); settings: for fold induction at 1 µM: Homo sapiens, read-out: Fold Change (KLF15 reporter activity)
Experimental: Briefly, these podocytes proliferate under permissive conditions (gamma interferon at 33° C.), but differentiate under nonpermissive conditions (37° C.).
The amplified fragment contains MluI and PmeI RE sites and was subcloned into the MluI and PmeI cloning site of the pEZX-FR03 Firefly luciferase (FLuc) and Renilla luciferase (Rluc) reporter cloning vector (GeneCopoeia) to generate pEZX-FR03hKLF15p. Following verification of the sequence by restriction and μsequencing, the pEZX-FR03hKLF15p construct (which contains a puromycin resistance cassette) was transfected into human podocytes followed by selection in puromycin-containing media for 2 weeks. Surviving podocytes clones were pooled together for further analysis.
The library of compounds from the National Cancer Institute (Approved Oncology Drugs Set VI; Natural Products Set III; Diversity Set V; and Mechanistic Diversity Set II) were added to a final concentration of 1 μM in 0.5% DMSO in the low FBS cell culture media (0.2% FBS) using liquid handling system PipetMax (Gilson). After 24 hours incubation at 37° C., the Luc-Pair™ Duo-Luciferase HT Assay Kit (GeneCopoeia LF015) were used and firefly and renilla luciferase activity was determined using the SpectraMax M3 (Molecular Devices). Positive controls were all-trans retinoic acid (atRA) (1 μM) and dexamethasone (DEX) (1 μM). Negative controls were DMSO and cell-free media.
as §1

human podocytes = assay: Cell viability of podocytes (renilla activity, MTS assay); settings: higher doses (10^4 nM), relative to DMSO
Experimental: Differentiated pEZX-FR03hKLF5p human podocytes were treated with 25 μg/ml lipopolysaccharide (LPS) or vehicle and 1 μM KLF15 agonist or vehicle control for 24 hours. Firefly and renilla luciferase assay were measured initially to determine relative KLF15 reporter activity.
Differentiated pEZX-FR03hKLF5p human podocytes were treated with 0.4 μg/ml adriamycin (ADR) or vehicle and 1 μM KLF15 agonist or vehicle control for 24 hours. Firefly and renilla luciferase assay were measured initially to determine relative KLF15 reporter activity.
To assess cell viability, the CellTiter 96® AQueous One Solution Reagent (Promega) was added to the culture media and plates were incubated for 2 hours at 37° C. with 5% CO2.

[3] = KLF15 reporter activity, dose-response, read-out: EC50
[4] = NCI library hits, 1 μM, 24 hours
[5] = Homo sapiens, KLF15 reporter activity, dose-response, read-out: EC50

Compound	EC50 [1, 5] [nM]	fold induction at 1 µM [2, 4]	further results
2-[2-[(2E)-2-[(5Z)-5-(anilinomethylene)-3-ethyl-4-oxo-thiazolidin-2-ylidene[hydrazino]thiazol-5-yl]-N-(o-tolyl)acetamide [C-26]	–	–	EC50 [1, 3]: 484 nM; Fold Change (KLF15 reporter activity) [2, 4]: 3.0168 fold
5-Methylbenzo[c]phenanthridin-5-ium-2,3,8,9-tetrol; pyridine; chloride; hydrochloride [C-23]	–	–	EC50 [1, 3]: 296 nM; Fold Change (KLF15 reporter activity) [2, 4]: 3.0541 fold
Oc1ccc(-c2nc3ccccc3s2)cc1 [C-1, Phenol,4-(2-benzothiazolyl)]	–	–	EC50 [1, 3]: 99.6 nM; Fold Change (KLF15 reporter activity) [2, 4]: 3.0083 fold
Nc1ccc2c(c1)CN1C(=O)c3ccccc3C1=N2 [C-2, Batracyclin]	14.9	3.07	–
CN(C)c1ccc(/C=C2\C=Cc3ccccc32)cc1 [C-3, [(4-Dimethylamino)benzylidene]indene]	–	–	EC50 [1, 3]: 17.7 nM; Fold Change (KLF15 reporter activity) [2, 4]: 2.6455 fold
CN(C)c1cccc(C=C(C#N)c2ccccc2)c1 [C-4, 2-Propenenitrile, 3-[3-(dimethylamino)phenyl]-2-phenyl-]	23.7	2.57	–
COc1ccc2[nH]c(-c3ccccc3)cc2c1 [C-5, 5-methoxy-2-phenyl-1H-indole]	55.9	3.14	–
Cc1cccnc1NC(=S)Nc1ncccc1C [C-6, 1,3-bis(3-methylpyridin-2-yl)thiourea]	770	2.71	–
O=C(Nc1ccc2ccccc2c1)c1cccc(F)c1 [C-8, 3-fluoro-N-(2-naphthyl)benzamide]	70.5	2.79	–
Clc1ccccc1-c1nc(-c2ccncc2)no1 [C-10, Pifexole]	332	2.72	–
Nc1ccccc1C(=O)Nc1ccc(Cl)cc1Cl [C-11, 2-amino-N-(2,4-dichlorophenyl)benzamide]	706	2.64	–
NC(=O)c1ccccc1OCC(=O)Nc1ccc(Cl)c(Cl)c1 [C-12, 2-[2-(3,4-Dichloroanilino)-2-oxoethoxy]benzamide]	37.3	3.13	–
O=C(Nc1ccc(Cl)c(Cl)c1)Nc1ccccc1O [C-13, N-(3,4-dichlorophenyl)-N′-(2-hydroxyphenyl)urea]	86.1	2.64	–
O=C(Nc1ccc(Nc2ccccc2)cc1)Nc1ccccc1Cl [C-14, 1-(4-Anilinophenyl)-3-(2-chlorophenyl)urea]	42.1	3.03	–
FC(F)(F)c1cccc(-c2nc3nc(Cl)c(Cl)nc3[nH]2)c1 [C-16, 5,6-dichloro-2-[3-(trifluoromethyl)phenyl]-1H-imidazo[4,5-b]pyrazine]	52.1	2.82	–
CC(=NNc1nc2ccccc2s1)c1ccncn1 [C-18, 2-(2-(1-(pyrimidin-4-yl)ethylidene)hydrazinyl)benzo[d]thiazole]	156	3.29	–
CC1=C(O)C(=O)C=C2C1=CC=C1[C@@]2(C)CC[C@@]2(C)[C@@H]3C[C@](C)(C(=O)O)CC[C@]3(C)CC[C@]12C [C-19, Celastrol]	–	–	EC50 ([1]; Homo sapiens): 11.2 nM; fold induction at 1 µM ([2]; 24 h): 3.28
COc1ccc(N=Nc2ccc(N)nc2N)cc1 [C-20, 3-[(4-Methoxyphenyl)azo]-2,6-pyridinediamine]	84.4	3.14	–
Cc1ccc(NC(=O)c2cccc([N+](=O)[O-])c2O)c([N+](=O)[O-])c1 [C-21, 2-hydroxy-N-(4-methyl-2-nitrophenyl)-3-nitrobenzamide]	–	–	EC50 ([1]; Homo sapiens): 61.4 nM; fold induction at 1 µM ([2]; 24 h): 3.11
Cc1nc(-n2nc(-c3ccccc3)cc2-c2ccccc2)sc1C(=O)C=Cc1ccc(Cl)c(Cl)c1 [C-27, 3-(3,4-dichlorophenyl)-1-(2-(3,5-diphenyl-1H-pyrazol-1-yl)-4-methylthiazol-5-yl)prop-2-en-1-one]	–	2.89	–
Cc1cccn2c(=O)[nH]nc12 [C-29]	–	–	EC50 [1, 3]: 550 nM; Fold Change (KLF15 reporter activity) [2, 4]: 2.8700 fold
CCOC(=O)c1sc2[n+](c1C)C(=O)/C(=C/c1ccc([N+](=O)[O-])cc1)S2.[Cl-] [C-32, ethyl (2Z)-5-methyl-2-[(4-nitrophenyl)methylidene]-3-oxo-[1,3]thiazolo[2,3-b][1,3]thiazol-4-ium-6-carboxylate;chloride]	–	–	Fold Change (KLF15 reporter activity) [2, 4]: 2.8360 fold
COc1ccc2c(n1)Sc1nc3ccccc3nc1N2 [C-35, 7-Methoxy-1,4,6-benzotriazaphenothiazine]	–	–	EC50 [1, 3]: 319 nM; Fold Change (KLF15 reporter activity) [2, 4]: 2.6597 fold
CN(C)c1ccc(N=Nc2ccccn2)cc1 [C-37, 4-(2-pyridylazo)-n,n-dimethylaniline]	–	–	EC50 [1, 3]: 27 nM; Fold Change (KLF15 reporter activity) [2, 4]: 2.6148 fold
O=C(Nc1cccc([N+](=O)[O-])c1)c1ccc2ccccc2c1O [C-38, 2-<3-Nitro-phenylcarbamoyl>-naphth-1-ol]	–	–	EC50 [1, 3]: 145 nM; Fold Change (KLF15 reporter activity) [2, 4]: 2.6069 fold
O=C1C(=Cc2ccc([N+](=O)[O-])cc2)Sc2scc(-c3cccc([N+](=O)[O-])c3)[n+]21 [C-42, Thiazolo[2,3-b]thiazolium, 2,3-dihydro-2-[(4-nitrophenyl)methylene]-5-(3-nitrophenyl)-3-oxo-, chloride]	–	–	fold induction at 1 µM ([2]; 24 h): 2.58
COc1cccc(C=Cc2nccc3ccccc23)c1OC [C-44]	–	–	EC50 [1, 3]: ~1840 nM; Fold Change (KLF15 reporter activity) [2, 4]: 2.5631 fold
C[C@@H]1C[C@H]2[C@@H]3CCC4=CC(=O)C=C[C@]4(C)[C@@]3(F)[C@@H](O)C[C@]2(C)[C@@]1(O)C(=O)CO [DEX, dexamethasone, reference compound]	–	–	renilla activity in dose-response (human podocytes): trend towards lower renilla activity
Tin(IV), chlorotriphenyl[1-(4-ethoxyphenyl)-3-cyanoureato]-, hydrogen, trimethylamine [C-17]	–	–	Fold Change (KLF15 reporter activity) [2, 4]: 4.6159 fold

Second part, led by results:

EC50 [1, 5] [nM]	Compound	fold induction at 1 µM [2, 4]	further results
2670	Cc1ccc(N/N=C2\C(=N)N(c3ccccc3)N=C2N)cc1 [C-24, (4Z)-5-imino-4-[(4-methylphenyl)hydrazinylidene]-1-phenylpyrazol-3-amine]	3.03	–
15.8	Cc1cc(N(C)C)ccc1/N=N/c1ccc2ncccc2c1 [C-25, N,N,3-trimethyl-4-[(E)-6-quinolylazo]aniline]	3.02	–
~6310	CN(C)c1ccc(N=Nc2cccc3ccoc23)cc1 [C-28, 7-(p-N,N-Dimethylaminophenylazo)benzofuran]	2.87	–
335	c1ccc(-c2nnc(-c3ccccn3)s2)nc1 [C-30, 2,5-dipyridin-2-yl-1,3,4-thiadiazole]	2.86	–
45.9	O=C1C(c2cnc3ccccc3n2)=C(O)c2ccccc21 [C-31, 1-Indenone, 3-hydroxy-2-(2-quinoxalinyl)-]	2.85	–
490	O=C1C=C/C(=C2/Nc3ccccc3S2)C(O)=C1 [C-33, (4E)-4-(3H-1,3-benzothiazol-2-ylidene)-3-hydroxycyclohexa-2,5-dien-1-one]	2.75	–
122	O=C1Nc2ccccc2C1=NNC(=O)c1ccccc1O [C-34, 2-hydroxy-N′-(2-oxo-1,2-dihydro-3H-indol-3-ylidene)benzohydrazide]	2.69	–
292	O=C(NC(=S)Nc1ccccn1)c1ccccc1 [C-36, N-(pyridin-2-ylcarbamothioyl)benzamide]	2.64	–
~6890	Cc1csc(N=Nc2ccc(N(C)C)cc2)[n+]1[O-] [C-39, N,N-dimethyl-4-[(4-methyl-3-oxido-1,3-thiazol-3-ium-2-yl)diazenyl]aniline]	2.6	–
546	COc1ccc(C(C#N)=Cc2ccccn2)cc1 [C-40, 2-(4-methoxyphenyl)-3-pyridin-2-ylprop-2-enenitrile]	2.6	–
215	COc1cccc2nc3cc(C)c(C)cc3nc12 [C-41, 1-Methoxy-7,8-dimethylphenazine]	2.59	–
866	Cc1ccc(NNC2=C3N=NN=C3C=CC2=O)cc1 [C-43, 4-[2-(4-methylphenyl)hydrazinyl]benzotriazol-5-one]	2.57	–
